Non-standard residues stand in square brackets, D forms with d. Residues, ends and D or L forms follow the SMILES beside them.
Target: T1, BcYkfC (Bacillus cereus, UniProt Q736M3)
T1 construct: gene ykfC; signal peptide (residues 1-23) removed; N-terminal His tag cut by TEV leaving Gly0; selenomethionine protein from E. coli; SH3b1 (29-129), SH3b2 (130-207) and NlpC/P60 (208-333) domains; model 29-333; monomer
T1 sequence (Q736M3 24-333): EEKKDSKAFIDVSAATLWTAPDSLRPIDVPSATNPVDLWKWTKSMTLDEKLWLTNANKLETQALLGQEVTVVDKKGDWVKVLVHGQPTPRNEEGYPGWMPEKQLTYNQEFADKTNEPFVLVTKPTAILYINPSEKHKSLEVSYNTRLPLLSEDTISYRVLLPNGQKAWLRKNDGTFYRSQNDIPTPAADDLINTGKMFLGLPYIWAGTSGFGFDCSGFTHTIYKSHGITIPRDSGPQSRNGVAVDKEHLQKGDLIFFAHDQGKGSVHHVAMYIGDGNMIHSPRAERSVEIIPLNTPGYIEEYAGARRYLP
Assay: X-ray crystal structure, […] Å (SeMet MAD)
Assay type: binding
Details: ligand co-purified, most likely from E. coli expression host; S2-S1 site; catalytic Cys238 oxidized (OCS), enzyme inactive in the crystal; crystallized at pH 4.2, 277 K

C[C@H](N)C(=O)N[C@H](CCC(=O)O)C(=O)O [L-Ala-γ-D-Glu] (H-Ala-[dE]-OH)
X-ray crystal structure, 1.79 Å (SeMet MAD): The dipeptide L-Ala-γ-D-Glu was identified from well defined electron density in the active site

— paper PMC2954226, “Structure of the γ-D-glutamyl-L-diamino acid endopeptidase YkfC from Bacillus cereus in complex with L-Ala-γ-D-Glu: insights into substrate recognition by NlpC/P60 cysteine peptidases” (Acta Crystallographica Section F: Structural Biology and …, 2010)
